We go through 34 compounds from patent US10577378B2, “EIF4A-inhibiting compounds and methods related thereto” (eFFECTOR Therapeutics, Inc., priority 2015, dated 2020).

The structures appear in SMILES notation. Where two headings read alike, the source gives them in different places.

In this assay the test system is MDA-MB-231 human breast cancer cells. Briefly: Cell proliferation assay (CellTiter-Glo, 72 hours treatment). In kind it is cell-based. Particulars: MDA-MB-231 cells, 72 hours at 37° C., CellTiter-Glo, read-out: MDA-MB-231 cell proliferation assay (IC50). The method, boiled down: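 IC50 categories: under 100 nM +++, 100–1000 nM ++, above 1000 nM +, derived by sigmoidal curve fitting of CellTiter-Glo luminescence. Cells plated at 2,500 per well, dosed the following day and exposed 72 h at 37 °C versus DMSO control.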

With `N#Cc1ccc([C@@]23Oc4cc(Cl)cnc4[C@]2(O)[C@H](O)[C@H](S(=O)(=O)N2CCCC2)[C@H]3c2ccccc2)cc1` (single isomer, unassigned) [83F], the IC50 (Homo sapiens) was under 100 nM.

`CN(C)C(=O)[C@H]1[C@@H](O)[C@@]2(O)c3ccncc3O[C@@]2(c2ccc(C#N)cc2)[C@@H]1c1ccccc1` (single isomer, unassigned) [95F]: the IC50 (Homo sapiens) was in the range of 100 to 1000 nM.

Consider `CN(C)C(=O)[C@H]1[C@@H](O)[C@@]2(O)c3c(Cl)cncc3O[C@@]2(c2ccc(C#N)cc2)[C@@H]1c1ccccc1` (single isomer, unassigned) [98F], for which the IC50 (Homo sapiens) lay in the range of 100 to 1000 nM.

On to `COc1cncc2c1[C@]1(O)[C@H](O)[C@H](S(C)(=O)=O)[C@@H](c3ccccc3)[C@]1(c1ccc(C#N)cc1)O2` (single isomer, unassigned) [102F], for which the IC50 (Homo sapiens) lay within 100 to 1000 nM.

With `COc1cncc2c1[C@]1(O)[C@H](O)[C@H](CN(C)C)[C@@H](c3ccccc3)[C@]1(c1ccc(C#N)cc1)O2` (single isomer, unassigned) [103F], the IC50 is under 100 nM.

With `COc1cncc2c1[C@]1(O)[C@H](O)[C@H](CN(C)C)[C@@H](c3ccccc3)[C@]1(c1ccc(C(F)F)cc1)O2` (single isomer, unassigned) [106F], the IC50 (Homo sapiens) was in the range of 100 to 1000 nM.

`COc1cncc2c1[C@]1(O)[C@H](O)[C@H](CN(C)C)[C@@H](c3ccccc3)[C@]1(c1ccc(C(F)(F)F)cc1)O2` (single isomer, unassigned) [107F]: the IC50 (Homo sapiens) fell in the range of 100 to 1000 nM.

For the compound `CN(C)C[C@@H]1[C@@H](O)[C@@]2(O)c3ncc(Cl)cc3O[C@@]2(c2ccc(C(F)F)cc2)[C@@H]1c1ccccc1` (single isomer, unassigned) [108F], under “Homo sapiens”, the IC50 fell in the range of 100 to 1000 nM.

Consider `CN(C)C[C@H]1[C@@H](O)[C@@]2(O)c3ncc(Cl)cc3O[C@@]2(c2ccc(C(F)(F)F)cc2)[C@@H]1c1ccccc1` (single isomer, unassigned) [109F], for which the IC50 (Homo sapiens) lay within 100 to 1000 nM.

As for `COc1cncc2c1[C@]1(O)[C@H](O)[C@H](CN3CCOCC3)[C@@H](c3ccccc3)[C@]1(c1ccc(C#N)cc1)O2` (single isomer, unassigned) [110F], the IC50 (Homo sapiens) is 100 to 1000 nM.

As for `COc1cncc2c1[C@]1(O)[C@H](O)[C@H](CN(C)CC(F)F)[C@@H](c3ccccc3)[C@]1(c1ccc(C#N)cc1)O2` (single isomer, unassigned) [112F], for the setting “Homo sapiens”, the IC50 is 100 to 1000 nM.

`COc1cncc2c1[C@]1(O)[C@H](O)[C@H](CN3CCC(F)(F)CC3)[C@@H](c3ccccc3)[C@]1(c1ccc(C#N)cc1)O2` (single isomer, unassigned) [113F]: the IC50 (Homo sapiens) was 100 to 1000 nM.

For the compound `COc1cncc2c1[C@]1(O)[C@H](O)[C@H](CNCC(F)F)[C@@H](c3ccccc3)[C@]1(c1ccc(C#N)cc1)O2` (single isomer, unassigned) [115F], the IC50 (Homo sapiens) lay in the range of 100 to 1000 nM.

With `COc1cncc2c1[C@]1(O)[C@@H](CO)C[C@@H](c3ccccc3)[C@]1(c1ccc(C#N)cc1)O2` (single isomer, unassigned) [120F], the IC50 (Homo sapiens) was under 100 nM.

In the case of `COc1cncc2c1[C@]1(O)[C@H](O)[C@H](CN3CC(F)(F)C3)[C@@H](c3ccccc3)[C@]1(c1ccc(C#N)cc1)O2` (single isomer, unassigned) [122F], the IC50 (Homo sapiens) was in the range of 100 to 1000 nM.

As for `COc1cncc2c1[C@]1(O)[C@H](O)[C@H](S(=O)(=O)N3CCOCC3)[C@@H](c3ccccc3)[C@]1(c1ccc(C#N)cc1)O2` (single isomer, unassigned) [126F], the IC50 (Homo sapiens) is 100 to 1000 nM.

Regarding `COc1nc(C#N)cc2c1[C@]1(O)[C@H](O)[C@H](CN(C)C)[C@@H](c3ccccc3)[C@]1(c1ccc(C#N)cc1)O2` (single isomer, unassigned) [139F], the IC50 (Homo sapiens) is under 100 nM.

On to `COc1nc(Cl)cc2c1[C@]1(O)[C@H](O)[C@H](CN(C)C)[C@@H](c3ccccc3)[C@]1(c1ccc(C#N)cc1)O2` (single isomer, unassigned) [140F], for which, where the note is “Homo sapiens”, the IC50 was under 100 nM.

Consider `COc1nc(C#N)cc2c1[C@]1(O)[C@H](O)[C@H](CN(C)C)[C@@H](c3ccccc3)[C@]1(c1ccc(Cl)cc1)O2` (single isomer, unassigned) [145F], for which the IC50 (Homo sapiens) is under 100 nM.

Consider `COc1nc(C#N)cc2c1[C@]1(O)[C@H](O)[C@H](CN(C)C)[C@@H](c3ccccc3)[C@]1(c1ccc(C(F)(F)F)cc1)O2` (single isomer, unassigned) [147F], for which the IC50 (Homo sapiens) was under 100 nM.

Consider `COc1nc(C#N)cc2c1[C@]1(O)[C@H](O)[C@H](CN3CCOCC3)[C@@H](c3ccccc3)[C@]1(c1ccc(C#N)cc1)O2` (single isomer, unassigned) [151F], for which the IC50 (Homo sapiens) was under 100 nM.

`COc1nc(Cl)cc2c1[C@]1(O)[C@H](O)[C@H](CN3CCN(C)CC3)[C@@H](c3ccccc3)[C@]1(c1ccc(C#N)cc1)O2` (single isomer, unassigned) [198Fa]: the IC50 (Homo sapiens) is under 100 nM.

For the compound `COc1nc(C#N)cc2c1[C@]1(O)[C@H](O)[C@H](CN3CCC3)[C@@H](c3ccccc3)[C@]1(c1ccc(C#N)cc1)O2` (single isomer, unassigned) [212F], the IC50 (Homo sapiens) is under 100 nM.

Take `COc1cc2c(c(OC)n1)[C@]1(O)[C@H](O)[C@H](CN(C)C)[C@@H](c3ccccc3)[C@]1(c1ccc(C#N)cc1)O2` (single isomer, unassigned) [231F]: the IC50 (Homo sapiens) was under 100 nM.

On to `COc1cncc2c1[C@]1(O)[C@H](O)[C@H](CN(C)CC(F)(F)F)[C@@H](c3ccccc3)[C@]1(c1ccc(C#N)cc1)O2` (single isomer, unassigned) [233F], for which the IC50 (Homo sapiens) is 100 to 1000 nM.

On to `COc1cncc2c1[C@]1(O)[C@H](O)[C@H](CN(C)C(C)(C)C)[C@@H](c3ccccc3)[C@]1(c1ccc(C#N)cc1)O2` (single isomer, unassigned) [243F], for which the IC50 (Homo sapiens) lay within 100 to 1000 nM.

`COc1cncc2c1[C@]1(O)[C@H](O)[C@H](CN(C)CCF)[C@@H](c3ccccc3)[C@]1(c1ccc(C#N)cc1)O2` (single isomer, unassigned) [248F]: the IC50 (Homo sapiens) was under 100 nM.

As for `COc1cncc2c1[C@]1(O)[C@H](O)[C@H](CN(C)Cc3ccnn3C)[C@@H](c3ccccc3)[C@]1(c1ccc(C#N)cc1)O2` (single isomer, unassigned) [250F], under “Homo sapiens”, the IC50 was over 1000 nM.

In the case of `COc1cncc2c1[C@]1(O)[C@H](O)[C@H](CN(C)CC(C)(C)O)[C@@H](c3ccccc3)[C@]1(c1ccc(C#N)cc1)O2` (single isomer, unassigned) [252F], the IC50 (Homo sapiens) was under 100 nM.

Consider `COc1cncc2c1[C@]1(O)[C@H](O)[C@H](CNCC(C)(C)O)[C@@H](c3ccccc3)[C@]1(c1ccc(C#N)cc1)O2` (single isomer, unassigned) [254F], for which, under “Homo sapiens”, the IC50 is under 100 nM.

For `COc1cncc2c1[C@]1(O)[C@H](O)[C@H](CN(C)C)[C@@H](c3ccccc3)[C@]1(c1ccc(C)cc1)O2` (single isomer, unassigned) [256F], the IC50 (Homo sapiens) was under 100 nM.

Take `COc1cncc2c1[C@]1(O)[C@H](O)[C@H](CN3CCCCC3)[C@@H](c3ccccc3)[C@]1(c1ccc(C#N)cc1)O2` (single isomer, unassigned) [258F]: the IC50 (Homo sapiens) is under 100 nM.

For the compound `COCCN(C)C[C@H]1[C@@H](O)[C@@]2(O)c3c(OC)cncc3O[C@@]2(c2ccc(C#N)cc2)[C@@H]1c1ccccc1` (single isomer, unassigned) [261F], the IC50 (Homo sapiens) is under 100 nM.

As for `COc1cncc2c1[C@]1(O)[C@H](O)[C@H](CN3[C@@H]4CC[C@H]3COC4)[C@@H](c3ccccc3)[C@]1(c1ccc(C#N)cc1)O2` (single isomer, unassigned) [265F], the IC50 (Homo sapiens) was in the range of 100 to 1000 nM.
